Assay results as given in patent publication US20230276792A1, “SELECTIVE HERBICIDES BASED ON SUBSTITUTED ISOXAZOLIN CARBOXAMIDES AND CLOQUINTOCET-MEXYL” (Bayer Aktiengesellschaft, priority 2020, published 2023).

Experiments:
Assay type in all cases: in vivo
[1] = system: spring wheat, TRZAS Triso; experiment: Safener seed treatment, post-emergence herbicide application, crop damage; settings: for HER effect + SAF [%] / Reduction [%]: cloquintocet-mexyl 0, 5 g a.i./kg seed; for HER effect [%]: without safener
Description: (§1) For safener seed treatment trials, sufficient seed amounts of the respective crops (spring wheat (TRZAS); spring barley (HORVS)) were weighed into screw cap glass bottles with a minimum volume trice of the seeds.
(§2) As a first step, specified safeners formulated as wettable powder (WP) or wettable granules (WG) were weighed out for the required dosages (g a.i./kg seed), corresponding to the seed amounts. The safener amounts were mixed with a coloured slurry blind formulation type, pre-diluted with milk at 3.5% fat rate (25 mgs slurry formulation plus 2 ml milk per 10 grams of seed). A tube roller was used for coating. The solutions were gradually pipetted each on the rotating seeds followed by coating for min. 3 hours until all liquid had been soaked up by the seeds. Thereafter, the coated seeds were put flat on open trays for drying over night at room temperature.
(§3) Treated seeds were then placed into pots (7 cm diameter) on the surface of sandy loam, pressed down, flat covered with additional soil and finally covered with sandy soil, also pressed down, watered, and kept under good growth conditions in a greenhouse, until the plants had reached 2-leaf-stage (BBCH 12).
(§4) At that stage, post-emergence application of the specified herbicides was done on: • a) pot sets containing plants with safener-coated seeds as described above, • b) as a reference, pot sets of plants without seed treatment.
(§5) The herbicides were formulated as wettable powder (WP). Equivalent to the spray area, compound amounts were weighed out and diluted related to the water application rate (300 l/ha) to an aqueous suspension plus additive (1 l/ha MERO). Dosage related equivalents were conventionally sprayed on trays with the potted plants.
(§6) After application, the test plants were kept under good growth conditions in a greenhouse. Assessment timings were 10 and 21 days after treatment (DAT) with the herbicide, by visual scoring of the crop damage in % (comparison of untreated with treated plants, either sprayed only with herbicide or with herbicide on plants with treated seeds).
(§7) Reduction [Difference]=herbicide damage without safener−herbicide damage with safener
(§8) Reduction [%]=(Reduction [Difference]*100)/herbicide damage without safener
(§9) b) Plant Species, Variety: TRZAS Triso, Safener (SAF): Cloquintocet-Mexyl

[2] = system: spring wheat, TRZAS Triso; experiment: Tank-mix post-emergence crop damage, herbicide with and without safener cloquintocet-mexyl, greenhouse; design: key to Reduction [Difference]: percentage points of damage: damage without safener minus damage with safener
Method: (§10) Seeds of crops (spring wheat, TRZAS; spring barley, HORVS; maize, ZEAMA) were placed in sandy loam soil in peat pots, covered with soil and cultivated in a greenhouse under good growth conditions. Two to three weeks after sowing, the test plants were treated at the 1 to 3-leaf stage. The herbicide/safener active compound combinations according to the invention, formulated as wettable powders or emulsion concentrates, and, in parallel tests, the correspondingly formulated individual active compounds were sprayed onto the green parts of the plants in various dosages using an amount of water of 300 l/ha (converted).
(§11) The pots were returned under good growing conditions in a glasshouse and a visual assessment of herbicidal effects was made at intervals from 1 to 3 weeks after herbicide application (DAT=days after treatment). Assessment was on a percentage basis in comparison with untreated control plants (0%=no injury, 100%=complete kill).
as §7, §8, §9

[3] = system: spring barley, HORVS Montoya; experiment: Safener seed treatment, post-emergence herbicide application, crop damage; design: key to Reduction [Difference]: % crop damage without safener minus % damage with safener; settings: for HER effect + SAF / Reduction [Difference] / Reduction [%]: cloquintocet-mexyl 0, 5 g a.i./kg seed
Description: as §1, §2, §3, §4, §5, §6, §7, §8
(§12) a) Plant Species, Variety: HORVS Montoya, Safener (SAF): Cloquintocet-Mexyl

[4] = system: spring barley, HORVS Montoya; experiment: Tank-mix post-emergence crop damage, herbicide with and without safener cloquintocet-mexyl, greenhouse; design: key to Reduction [Difference]: damage without safener − damage with safener, % points (0–100% scale); settings: cloquintocet-mexyl 100 g a.i./ha
Method: as §10, §11, §7, §8, §12

[5] = 21 DAT, HER dose 16 g a.i./ha, cloquintocet-mexyl 100 g a.i./ha
[6] = 21 DAT, HER dose 1, 5 g a.i./ha
[7] = 21 DAT, HER dose 1, 5 g a.i./ha, cloquintocet-mexyl 50 g a.i./ha
[8] = 21 DAT, HER dose 8 g a.i./ha, cloquintocet-mexyl 50 g a.i./ha
[9] = 10 DAT, HER dose 32 g a.i./ha, cloquintocet-mexyl 100 g a.i./ha
[10] = 21 DAT, HER dose 32 g a.i./ha, cloquintocet-mexyl 100 g a.i./ha
[11] = 10 DAT, HER dose 8 g a.i./ha, cloquintocet-mexyl 50 g a.i./ha
[12] = 10 DAT, HER dose 2 g a.i./ha, cloquintocet-mexyl 50 g a.i./ha

## CC1(C(=O)NC2C=CC(C(=O)OCCCl)C2)CC(c2cc(F)cc(F)c2)=NO1 (mixture of isomers) [Example 1.47]
[1]; 21 DAT, HER dose 4 g a.i./ha
  HER effect + SAF [%]: 10%
  HER effect [%]: 30%
[1]; 21 DAT, HER dose 16 g a.i./ha
  HER effect + SAF [%]: 10%
  HER effect [%]: 80%
[2]; 21 DAT, HER dose 4 g a.i./ha, cloquintocet-mexyl 50 g a.i./ha
  HER effect + SAF: 0%
[2]; [5]
  HER effect + SAF: 5%
  Reduction [%]: 94%
  Reduction [Difference]: 75
[3]; 21 DAT, HER dose 12 g a.i./ha
  HER effect + SAF: 0%
[3]; 21 DAT, HER dose 12 g a.i./ha, without safener
  HER effect: 20%
[3]; 21 DAT, HER dose 48 g a.i./ha
  Reduction [Difference]: 75

## C=CC1(C(=O)NC2C=C(C(=O)OCC#N)OC2)CC(c2cc(F)cc(F)c2)=NO1 (stereo not shown) [Example 1.91]
[1]; [6]
  HER effect + SAF [%]: 20%
  Reduction [%]: 71%
  HER effect [%]: 70%
[1]; 21 DAT, HER dose 6 g a.i./ha
  HER effect + SAF [%]: 30%
  HER effect [%]: 90%
[1]; 21 DAT, HER dose 24 g a.i./ha
  HER effect + SAF [%]: 20%
  Reduction [%]: 75%
  HER effect [%]: 80%
[2]; [7]
  Reduction [%]: 71%
  Reduction [Difference]: 50
[2]; 21 DAT, HER dose 24 g a.i./ha, cloquintocet-mexyl 100 g a.i./ha
  Reduction [%]: 75%

## C=CC1(C(=O)NC2CC=C(C(=O)OC)C2)CC(c2cc(F)cc(F)c2)=NO1 (mixture of isomers) [Example 1.60]
[4]; 21 DAT, HER dose 8 g a.i./ha
  HER effect + SAF: 0%
  Reduction [Difference]: 80
[1]; 21 DAT, HER dose 8 g a.i./ha
  HER effect + SAF [%]: 10%
  HER effect [%]: 93%
[1]; 21 DAT, HER dose 32 g a.i./ha
  HER effect + SAF [%]: 10%
  HER effect [%]: 95%
[2]; [8]
  HER effect + SAF: 70%
  Reduction [%]: 25%
  Reduction [Difference]: 23
[2]; 21 DAT, HER dose 8 g a.i./ha, without safener
  HER effect: 93%

## COC(=O)C1C=CC(NC(=O)C2(C)CC(c3cccc(F)c3)=NO2)C1 (stereo not shown) [Example 1.20]
[4]; 21 DAT, HER dose 32 g a.i./ha
  Reduction [%]: 88%
  Reduction [Difference]: 70
[1]; 10 DAT, HER dose 8 g a.i./ha
  HER effect + SAF [%]: 0%
  HER effect [%]: 20%
[1]; 10 DAT, HER dose 32 g a.i./ha
  HER effect + SAF [%]: 0%
  HER effect [%]: 50%
[2]; [9]
  Reduction [%]: 80%
[3]; 21 DAT, HER dose 32 g a.i./ha
  Reduction [%]: 88%
  Reduction [Difference]: 70

## CC1(C(=O)NC2COC(C(=O)OCc3ccccc3)C2)CC(c2cccc(F)c2)=NO1 (mixture of isomers) [Example 1.79]
[1]; 10 DAT, HER dose 6 g a.i./ha
  HER effect + SAF [%]: 0%
  HER effect [%]: 30%
[1]; 10 DAT, HER dose 24 g a.i./ha
  HER effect + SAF [%]: 10%
  HER effect [%]: 50%
[2]; 10 DAT, HER dose 24 g a.i./ha, cloquintocet-mexyl 100 g a.i./ha
  Reduction [Difference]: 50
[3]; 10 DAT, HER dose 24 g a.i./ha
  Reduction [%]: 86%
  Reduction [Difference]: 60

## C=CC1(C(=O)NC2C=CC(C(=O)O)C2)CC(c2cc(F)cc(F)c2)=NO1 (stereo not shown) [Example 1.58]
[1]; 21 DAT, HER dose 2 g a.i./ha
  HER effect + SAF [%]: 0%
  HER effect [%]: 85%
[1]; 21 DAT, HER dose 8 g a.i./ha
  HER effect + SAF [%]: 10%
  HER effect [%]: 93%
[1]; 21 DAT, HER dose 32 g a.i./ha
  HER effect + SAF [%]: 20%
  Reduction [%]: 78%
  HER effect [%]: 93%
[2]; [8]
  HER effect + SAF: 50%
  Reduction [%]: 46%
  Reduction [Difference]: 43
[2]; [10]
  HER effect + SAF: 60%
  Reduction [%]: 35%
  Reduction [Difference]: 33

## COCCOC(=O)C1C=CC(NC(=O)C2(C(F)(F)F)CC(c3cc(F)cc(C#N)c3)=NO2)C1 (stereo not shown) [Example 1.2]
[4]; 10 DAT, HER dose 8 g a.i./ha
  HER effect + SAF: 10%
[1]; 10 DAT, HER dose 8 g a.i./ha
  HER effect + SAF [%]: 0%
  HER effect [%]: 90%
[1]; 10 DAT, HER dose 32 g a.i./ha
  HER effect + SAF [%]: 10%
  HER effect [%]: 90%
[2]; [11]
  HER effect + SAF: 70%
  Reduction [%]: 22%
[3]; 10 DAT, HER dose 8 g a.i./ha
  HER effect + SAF: 10%

## COCCOC(=O)C1C=CC(NC(=O)C2(C)CC(c3cc(Cl)cc(C#N)c3)=NO2)C1 (stereo not shown) [Example 1.5]
[1]; 21 DAT, HER dose 8 g a.i./ha
  HER effect + SAF [%]: 10%
  HER effect [%]: 90%
[1]; 21 DAT, HER dose 32 g a.i./ha
  HER effect + SAF [%]: 30%
  HER effect [%]: 95%
[2]; [12]
  HER effect + SAF: 20%
  Reduction [%]: 60%
  Reduction [Difference]: 30
[3]; 21 DAT, HER dose 8 g a.i./ha
  HER effect + SAF: 10%
  Reduction [%]: 80%
  Reduction [Difference]: 40
[3]; 21 DAT, HER dose 32 g a.i./ha
  HER effect + SAF: 20%
  Reduction [%]: 75%
  Reduction [Difference]: 60

## C=CC1(C(=O)NC2COC(C(=O)OC)C2)CC(c2cc(C)cc(F)c2)=NO1 (mixture of isomers) [Example 1.71]
[4]; 21 DAT, HER dose 32 g a.i./ha
  Reduction [%]: 57%
  Reduction [Difference]: 40
[1]; 10 DAT, HER dose 8 g a.i./ha
  HER effect + SAF [%]: 0%
  HER effect [%]: 50%
[1]; 10 DAT, HER dose 32 g a.i./ha
  HER effect + SAF [%]: 0%
  HER effect [%]: 85%
[2]; [9]
  HER effect + SAF: 10%
  Reduction [%]: 88%
  Reduction [Difference]: 75
